Experimental data reported in ChEMBL document CHEMBL4665541, “Search for new therapeutic options for the uncommon pathogen Mycobacterium chimaera: an open drug discovery approach” (Lancet Microbe, 2021).

The substances below were run on Mycobacterium intracellulare subsp. chimaera (assay: (§1) Inhibition of mycobacterial growth using the resazurin microtitre cell viability assay (REMA), compounds at final concentration of 20 µM (2% v/v DMSO). Hits were classed as compounds that inhibited bacterial growth by 70% or more compared to drug-free controls.). Details: NCTC13781.
Format: functional, organism-based
Design: conc 20 uM
With MMV000011 the Survival was 10.1%. MMV000016 was tested, and the Survival was 110%. MMV000023 was tested, and the Survival was 92.8%. With MMV000062 the Survival was 85.2%. For MMV000063, the Survival was 99.8%. MMV000858 was tested, and the Survival was 118%. MMV000907 was tested, and the Survival was 98.3%. In the case of MMV001059, the Survival is reported as 106%. For MMV001493, the Survival was 106%. MMV001499 showed a Survival of 101%. In the case of MMV001561, the Survival is reported as 103%. With MMV001625 the Survival was 101%. MMV002529 gave a Survival of 99.8%. In the case of MMV002816, the Survival is reported as 102%. For MMV002817, the Survival was 100%. Substance MMV003152 has a Survival of 96.7%. MMV004168 showed a Survival of 99.7%. For MMV006239, the Survival was 94.8%. Substance MMV006372 has a Survival of 98.4%. For MMV006741, the Survival was 96.4%. MMV006833 showed a Survival of 115%. MMV006901 was tested, and the Survival was 120%. MMV007133 showed a Survival of 95.2%. MMV007471 was tested, and the Survival was 101%. MMV007625 was tested, and the Survival was 104%. Work on MMV007638 yielded a Survival of 113%. MMV007803 gave a Survival of 105%. MMV007920 was tested, and the Survival was 99.7%. For MMV008439, the Survival was 99.8%. Work on MMV009054 yielded a Survival of 100%. In the case of MMV009135, the Survival is reported as 104%. MMV010545 gave a Survival of 86.4%. In the case of MMV010576, the Survival is reported as 99%. MMV010764 was tested, and the Survival was 94.1%. In the case of MMV011229, the Survival is reported as 94%. MMV011511 gave a Survival of 104%. With MMV011691 the Survival was 103%. In the case of MMV011765, the Survival is reported as 70.9%. In the case of MMV011903, the Survival is reported as 108%. With MMV012074 the Survival was 88.4%. MMV016136 gave a Survival of 108%. For MMV016838, the Survival was 91.7%. In the case of MMV019087, the Survival is reported as 92.7%. MMV019189 showed a Survival of 97.4%.

What follows are substances tested on Mycobacterium tuberculosis (assay: as §1). Details: H37Rv.
Format: functional, organism-based
Design: conc 20 uM
With MMV000011 the Survival was 22.4%. In the case of MMV000016, the Survival is reported as 127%. In the case of MMV000023, the Survival is reported as 84.7%. For MMV000062, the Survival was 18.8%. In the case of MMV000063, the Survival is reported as 90.6%. In the case of MMV000858, the Survival is reported as 105%. MMV000907 was tested, and the Survival was 97.1%. For MMV001059, the Survival was 89.4%. MMV001493 showed a Survival of 93.6%. MMV001499 showed a Survival of 93.2%. MMV001561 showed a Survival of 91.3%. For MMV001625, the Survival was 90.5%. MMV002529 was tested, and the Survival was 92%. Substance MMV002816 has a Survival of 86.4%. For MMV002817, the Survival was 90.6%. In the case of MMV003152, the Survival is reported as 92.7%. MMV004168 was tested, and the Survival was 90.2%. Substance MMV006239 has a Survival of 86.9%. MMV006372 gave a Survival of 101%. With MMV006741 the Survival was 85.7%. MMV006833 was tested, and the Survival was 93.7%. MMV006901 was tested, and the Survival was 86.8%. For MMV007133, the Survival was 98.7%. MMV007471 gave a Survival of 89.1%. With MMV007625 the Survival was 90.4%. For MMV007638, the Survival was 100%. MMV007803 was tested, and the Survival was 97.5%. MMV007920 was tested, and the Survival was 98%. For MMV008439, the Survival was 106%. Work on MMV009054 yielded a Survival of 98.7%. Work on MMV009135 yielded a Survival of 93.6%. MMV010545 gave a Survival of 91.4%. Work on MMV010576 yielded a Survival of 106%. For MMV010764, the Survival was 88.8%. Substance MMV011229 has a Survival of 92.6%. Work on MMV011511 yielded a Survival of 88%. In the case of MMV011691, the Survival is reported as 86.2%. In the case of MMV011765, the Survival is reported as 89.2%. Work on MMV011903 yielded a Survival of 108%. Substance MMV012074 has a Survival of 53.4%. MMV016136 was tested, and the Survival was 107%. Substance MMV016838 has a Survival of 78.9%. MMV019087 showed a Survival of 74.9%. For MMV019189, the Survival was 77%.

The substances below were run on Mycobacteroides abscessus (assay: as §1). Details: ATCC19977.
Format: functional, organism-based
Design: conc 20 uM
With MMV000011 the Survival was 118%. MMV000016 gave a Survival of 99.9%. With MMV000023 the Survival was 109%. MMV000062 showed a Survival of 109%. MMV000063 gave a Survival of 120%. Substance MMV000858 has a Survival of 113%. In the case of MMV000907, the Survival is reported as 111%. Work on MMV001059 yielded a Survival of 105%. MMV001493 gave a Survival of 128%. MMV001499 showed a Survival of 125%. Work on MMV001561 yielded a Survival of 103%. MMV001625 gave a Survival of 121%. For MMV002529, the Survival was 120%. MMV002816 showed a Survival of 112%. MMV002817 gave a Survival of 118%. In the case of MMV003152, the Survival is reported as 111%. For MMV004168, the Survival was 114%. MMV006239 gave a Survival of 112%. In the case of MMV006372, the Survival is reported as 111%. MMV006741 gave a Survival of 111%. Work on MMV006833 yielded a Survival of 126%. MMV006901 showed a Survival of 102%. For MMV007133, the Survival was 95%. In the case of MMV007471, the Survival is reported as 119%. MMV007625 gave a Survival of 123%. Substance MMV007638 has a Survival of 123%. For MMV007803, the Survival was 101%. For MMV007920, the Survival was 102%. With MMV008439 the Survival was 112%. MMV009054 showed a Survival of 105%. Work on MMV009135 yielded a Survival of 101%. With MMV010545 the Survival was 111%. For MMV010576, the Survival was 112%. MMV010764 showed a Survival of 101%. In the case of MMV011229, the Survival is reported as 97.3%. With MMV011511 the Survival was 112%. Work on MMV011691 yielded a Survival of 104%. Work on MMV011765 yielded a Survival of 108%. Work on MMV011903 yielded a Survival of 114%. MMV012074 showed a Survival of 110%. For MMV016136, the Survival was 118%. Substance MMV016838 has a Survival of 109%. For MMV019087, the Survival was 111%. With MMV019189 the Survival was 97.2%.
